Publication PMC9257752, “Intestinal Absorption of FITC-Dextrans and Macromolecular Model Drugs in the Rat Intestinal Instillation Model” (Molecular Pharmaceutics, 2022)
Numbered stars: 1 amine (or outer) side, 2 acyl side, 3 side chain; on linkers, the order of the positions; unused ones are H or OH. Square brackets hold non-standard residues; d marks the D form. Side chains are listed from the residue outwards. Peptide text beside a SMILES is read from it. * marks the point of attachment. γGlu = O=C(O)[C@H](CCC(=O)[*:2])N[*:1]; αMeF = C[C@](N)(Cc1ccccc1)C(=O)O; αMeK = C[C@](N)(CCCCN)C(=O)O; Lauroyl = CCCCCCCCCCCC(=O)*; αMeS = C[C@](N)(CO)C(=O)O; AEEA = NCCOCCOCC(=O)O; Aib = CC(C)(N)C(=O)O

Assays:
[1] = system: pancreatin; design: method as in PMID 34795324; conditions: simulated intestinal fluid containing pancreatin, over a 60 min period; cited from earlier work
[2] = dogs; cited from earlier work
Description: MEDI7219 is a glucagon-like peptide 1 (GLP-1) receptor agonist drug candidate developed by AstraZeneca.[10] The peptide was designed for oral delivery and has natural amino acid and α-methyl amino acid substitutions to protect against peptidasesin the gastrointestinal tract. The peptide backbone has two lipid side chains that can bind to plasma proteins, thereby prolonging the circulation half-life of the peptide. […] The calculated pI is 3.8, giving the peptide a charge of −6.2 at pH 7.4. The molecular weight of MEDI7219 is 4353, ...

[3] = Rat intestinal instillation model (intraduodenal administration, plasma pharmacokinetics, deconvolution); conditions: for Proportion of total absorption (120 min) occurring in interval 0–20 min / Proportion of total absorption (120 min) occurring in interval 20–40 min / Proportion of total absorption (120 min) occurring in interval 40–60 min / Proportion of total absorption (120 min) occurring in interval 60–80 min / Proportion of total absorption (120 min) occurring in interval 80–100 min / Proportion of total absorption (120 min) occurring in interval 100–120 min: average ± SD; for Cmax / Tmax: male, Wistar Han, rat, plasma; for Cmax: pH 6.5, Cmax, MEDI7219 1.0 mg, PEP12210 5.0 mg, mean ± SD (CV%); for Tmax: pH 6.5, Tmax
Description: Blank FaSSIF was prepared by dissolving 2.22 g of maleic acid, 1.39 g of sodium hydroxide, and 4.01 g of sodium chloride in Milli-Q water and adjusting the pH to 6.5 and volume to 1000 mL. C10 solutions were prepared at 50 or 300 mM C10 in blank FaSSIF and pH-adjusted to 6.5 by the addition of 2 M HCl. Blank FaSSIF solutions containing 0–300 mM C10 were stored at room temperature (RT) and used within 30 days. The model compounds were dissolved in blank FaSSIF with or without C10 the day before the absorption study and stored at +4 °C overnight. […] All IV formulations were sterile filtered into autoclaved injection vials and stored at +4 °C.
Upon arrival at the animal facility, the rats underwent an acclimatization period of 5 days with food and water ad libitum.
Briefly, anesthesia was induced with isoflurane after which the animal was moved to a preheated preparatory table. Fur was shaved from the throat to the lower abdomen and the shaved area was disinfected with a medicinal sponge containing chlorhexidine. The rat was draped in plastic foil and transferred to a preheated operating table where anesthesia was continued throughout the entire study using 3% isoflurane carried in an air/oxygen mixture. A polyurethane catheter was placed in the left carotid artery to allow for blood sampling, as well as blood pressure and heart rate monitoring. A midline incision was made in the abdomen, the duodenum was located and a catheter was placed in the common bile duct to avoid bile secretion into the duodenum. […] The stomach was punctured approximately 1 cm proximal to the pyloric sphincter with a 20G needle. A soft polyurethane catheter with a rounded tip was inserted into the small intestine via the gastric incision so that the tip of the catheter was positioned approximately 4 cm distal to the pylorus. The intestinal catheter was secured to the stomach with a suture and a ligature was placed at the pylorus to prevent backflow of formulation into the stomach and transit of gastric content into the duodenum. A thermometer was placed in the abdominal cavity and the abdomen was closed with stitches. A heating lamp coupled to the thermometer via a thermostat maintained the animal at 37 °C. The surgery was followed by a 30 min recovery period to allow the animal to regain normal temperature and blood pressure.
The liquid formulations were equilibrated to room temperature under magnetic stirring for 2 h prior to administration. Intestinal bolus administrations were performed over approximately 5 s via the intestinal catheter. […] The C10 doses were 7.8 mg for administrations with 50 mM C10 and 47 mg for 300 mM C10. Five to six replicates were performed for each administration group. […] Blood plasma was separated by immediately centrifuging the blood samples at +4 °C and 10 000g for 4 min. Plasma samples were transferred to new tubes and stored at −80 °C until analysis.
The animals receiving IV administration were handled and prepared in the same way as the animals receiving intestinal administration up until the placement of the carotid catheter. As no abdominal surgery was performed, a thermometer was introduced rectally.

[4] = 0 mM C10, numerical deconvolution, n = 5–6 (PEP12210 n = 2)
[5] = 50 mM C10, numerical deconvolution, n = 5–6
[6] = 300 mM C10, numerical deconvolution, n = 5–6

## CCCCCCCCCCCC(=O)N[C@@H](CCC(=O)NCCOCCOCC(=O)NCCOCCOCC(=O)NCCCC[C@H](NC(=O)[C@H](C)NC(=O)[C@@H](NC(=O)[C@](C)(Cc1ccccc1)NC(=O)[C@H](CCC(=O)O)NC(=O)[C@](C)(CCCCN)NC(=O)[C@H](C)NC(=O)[C@H](C)NC(=O)[C@H](CCC(=O)O)NC(=O)CNC(=O)[C@H](CCC(=O)O)NC(=O)[C@H](CC(C)C)NC(=O)[C@H](CCCCNC(=O)COCCOCCNC(=O)COCCOCCNC(=O)CC[C@H](NC(=O)CCCCCCCCCCC)C(=O)O)NC(=O)[C@H](CO)NC(=O)[C@](C)(CO)NC(=O)[C@@H](NC(=O)[C@H](CC(=O)O)NC(=O)[C@H](CO)NC(=O)[C@@H](NC(=O)[C@](C)(Cc1ccccc1)NC(=O)[C@H](CO)NC(=O)CNC(=O)[C@H](CCC(=O)O)NC(=O)C(C)(C)NC(=O)[C@@H](N)Cc1c[nH]cn1)[C@@H](C)O)C(C)C)[C@@H](C)CC)C(=O)N[C@H](C(=O)N[C@H](C(=O)N[C@@H](CCC(=O)O)C(=O)NCC(=O)NCC(N)=O)C(C)C)C(C)C)C(=O)O [MEDI7219] (H-H[Aib]EGS[αMeF]TSDV[αMeS]SK([AEEA-AEEA-γGlu-Lauroyl])LEGEAA[αMeK]E[αMeF]IAK([AEEA-AEEA-γGlu-Lauroyl])VVEGG-NH2)
[1]
  Proportion of peptide remaining intact: 90%
[2]
  Half-life following oral administration: 9.8 h
[3]; [4]
  Proportion of total absorption (120 min) occurring in interval 0–20 min: 11% ± 2.8%
  Proportion of total absorption (120 min) occurring in interval 20–40 min: 12% ± 2.9%
  Proportion of total absorption (120 min) occurring in interval 40–60 min: 22% ± 2.5%
  Proportion of total absorption (120 min) occurring in interval 60–80 min: 15% ± 1.2%
  Proportion of total absorption (120 min) occurring in interval 80–100 min: 18% ± 2.5%
  Proportion of total absorption (120 min) occurring in interval 100–120 min: 22% ± 4.9%
[3]; [5]
  Proportion of total absorption (120 min) occurring in interval 0–20 min: 72% ± 3.6%
  Proportion of total absorption (120 min) occurring in interval 20–40 min: 16% ± 2.6%
  Proportion of total absorption (120 min) occurring in interval 40–60 min: 4.5% ± 1.7%
  Proportion of total absorption (120 min) occurring in interval 60–80 min: 1.8% ± 5.5%
  Proportion of total absorption (120 min) occurring in interval 80–100 min: 2.1% ± 2.6%
  Proportion of total absorption (120 min) occurring in interval 100–120 min: 3.6% ± 4.2%
[3]; [6]
  Proportion of total absorption (120 min) occurring in interval 0–20 min: 25% ± 5.1%
  Proportion of total absorption (120 min) occurring in interval 20–40 min: 20% ± 2.6%
  Proportion of total absorption (120 min) occurring in interval 40–60 min: 24% ± 2.3%
  Proportion of total absorption (120 min) occurring in interval 60–80 min: 13% ± 3.5%
  Proportion of total absorption (120 min) occurring in interval 80–100 min: 10% ± 3.1%
  Proportion of total absorption (120 min) occurring in interval 100–120 min: 7.8% ± 4.0%
[3]; 50 mM C10, blank FaSSIF pH 6.5, dose FD10 10 mg, n = 5–6
  Cmax: 440 nM
[3]; 300 mM C10, blank FaSSIF pH 6.5, dose FD10 10 mg, n = 5–6
  Cmax: 1400 nM
[3]; 0 mM C10, blank FaSSIF pH 6.5, median (min–max), n = 5–6 (PEP12210 n = 2)
  Tmax: 2 h
[3]; 50 mM C10, blank FaSSIF pH 6.5, median (min–max), n = 5–6
  Tmax: 0.333 h
[3]; 300 mM C10, blank FaSSIF pH 6.5, median (min–max), n = 5–6
  Tmax: 1.5 h
